The text below walks through data of US20140221301A1, “COMBINATION TREATMENT FOR CANCER” (priority 2011, published 2014).

SMILES strings stand for the structures.

One may read the IC50 as the midpoint of a concentration-inhibition curve. High values mean weaker potency in that assay, low ones greater potency in that assay.

The test system of one test is TEX cells. The experiment in a line: Apoptosis by Annexin V flow cytometry in TEX cells. Format: cell-based, human. Conditions: over time. How it is done:
(§1) FIG. 1. […] (A) TEX and (B) M9-ENL1 cells were plated in 96-well plates and drugs were added to the wells (5 μL per well) for final concentrations of 10 μM (shown) and 1 μM. Cell growth and viability was measured at 48 hours (M9-ENL-1) and 72 hours (TEX) by MTS assay. Cell viability is shown for each compound as a percent of cells treated with DMSO alone. (C) Leukemia, (D) myeloma, and (E) solid tumor cell lines were seeded in 96-well plates and then treated with increasing concentrations of tigecycline. Cell growth and viability was measured at 72 hours by MTS assay. Cell viability is expressed as mean percentage plus or minus SD (n=3) relative to vehicle-treated cells. […] Cell viability was measured at 72 hours by MTS assay. Cell viability is expressed as mean percentage plus or minus SD (n=3) relative to vehicle-treated cells.
(§2) Cell growth and viability was assessed by the MTS assay (Promega, Madison, Wis.) according to the manufacturer's instructions. Apoptosis and cell death was measured by Annexin V-fluroscein isothiocyanate (FITC; Biovision Research Products, Mountain View, Calif.), propidium iodide staining and flow cytometry according to the manufacturer's instructions and as previously described^30.
(In flow cytometry, cells or beads pass a laser one at a time.)

Test [1] has as its system Cox-1, Cox-2 (mitochondrially-translated subunits I and II) over Cox-4. Kind of test: Immunoblotting of cytochrome C oxidase subunits in leukemia cells. The format is cell-based, human. As to conditions: TEX, OCI-AML2, two AML patients; 2.5 μM and 5 μM, 36 and 48 hours. The protocol: (§3) FIG. 4. […] (A) Cells from TEX, OCI-AML2 and two primary AML patients were treated with increasing concentrations (2.5 μM and 5 μM) of tigecycline for 36 and 48 hours of tigecycline. Total proteins were extracted and analyzed by western blotting for Cox-1, Cox-2, Cox-4, grp78, XIAP, actin and tubulin. (B) TEX and AML patient cells were treated with increasing concentrations (2.5 μM and 5 μM) of tigecycline. Cox-1, Cox-2, and Cox-4 mRNA expression relative 18S was determined by quantitative RT-PCR. Data is shown as mean±SD. (C) TEX cells were treated with increasing concentrations of tigecycline and chloramphenicol (CAP) for 72 hours. Complex I, II and IV enzyme activity relative to citrate synthase activity was determined as described in materials and methods. (D) Cells from TEX, primary AML patients, and normal donors were treated with increasing concentrations of tigecycline. Mitochondrial membrane potential (ΔΨ) was determined by staining cells with JC-1 dye, and flow cytometry analysis (Red/Green ratio). Reactive oxygen species generation (ROS) was determined by staining with h2-DCFDA and Dihydroethidium (DHE).
(§4) Total cell lysates were prepared from cells as described previously^32. […] Protein concentrations were measured by the DC Protein assay. […]
A general note: In western blotting, separated proteins are transferred to a membrane and probed.

For the next test, the system named is XIAP, grp78. The experiment in a line: Immunoblotting of cytosolic-ribosome translated proteins. Format: cell-based, human. Conditions: TEX, OCI-AML2, primary AML cells. The protocol: as §3, §4
The next test deals with solid tumour cell lines. The experiment in a line: Cell growth and viability, MTS assay, solid tumour cell lines. Format: cell-based. Conditions: 72 hours. The protocol: as §1
Human leukemia (OCI-AML2, HL60, U937) cell lines were maintained in RPMI 1640 medium. Myeloma (LP-1, KMS11, 8226, JJN3, OP-M2) cell lines were maintained in Iscove's media. […]
as §2

For test [2], the system named is primary normal hematopoietic cells (PBSC). Kind of test: Cell viability by Annexin V staining, primary normal hematopoietic cells. Format: cell-based, human. As to conditions: n=5, 48 hours. The protocol: FIG. 2. Tigecycline induces cell death and inhibits clonogenic growth in primary AML cells preferential over normal hematopoietic cells. Mononuclear cells from peripheral blood of leukemia patients (blast count>80%) and normal G-CSF expanded donors was treated with increasing concentrations of tigecycline for 48 hours. Cell viability was measured by Annexin-PI flow cytometry staining. Cell viability is expressed as a mean percentage plus or minus SD (n=3) relative to DMSO-treated cells. Mononuclear cells from primary AML patient samples (A, B) and normal peripheral blood cells (C) were plated in methylcelluose with 5 μM of Tigecycline. (D) Colony forming units were counted at 7 days (AML) and 14 days (Normal) post plating. […]
as §2
Given the cytotoxicity of tigecycline towards leukemia cell lines, the ability of tigecycline to induce cell death in primary acute myeloid leukemia (AML) patient samples and normal hematopoietic cells was compared and evaluated. […]

In the case of `CN(C)c1cc(NC(=O)CNC(C)(C)C)c(O)c2c1C[C@H]1C[C@H]3[C@H](N(C)C)C(O)=C(C(N)=O)C(=O)[C@@]3(O)C(O)=C1C2=O` [tigecycline], the “apoptosis, percentage of cells labeled by Annexin V” value in the test on TEX cells was “time-dependent increases in apoptosis”. Besides, the “protein level of mitochondrially-translated subunits I and II over nuclear-translated subunit IV” value in test [1] is on record as “preferential decrease”. In the test with XIAP, grp78, the “expression of XIAP or grp78” value is “did not alter”. The IC50 in the test with solid tumour cell lines was above 10 µM. The compound also displayed an LD50 in test [2] above 10 µM.
